The target in one assay is T1, HDAC1 enzyme (Homo sapiens, UniProt Q13547).
T1 construct: Amplification of human HDAC1 coding region from this cDNA library was cloned separately into the baculovirus expression pDEST20 vector; made in house; host or cells: SF9 insect cells (baculovirus, pDEST20 vector)
As to the kind of experiment: In vitro HDAC assay for determination of IC50 values (BIOMOL fluorescent-based HDAC activity assay). The settings on record: recombinant GST-HDAC1, 500 uM Flur de lys substrate, room temperature 2 h; read-out: IC50 (HDAC 1). The assay is classed as biochemical. The method, then:
Human cDNA library was prepared using cultured SW620 cells. Amplification of human HDAC1 coding region from this cDNA library was cloned separately into the baculovirus expression pDEST20 vector (GATEWAY Cloning Technology, Invitrogen Pte Ltd). The pDEST20-HDAC1 construct was confirmed by DNA sequencing. Recombinant baculovirus was prepared using the Bac-To-Bac method following the manufacturer's instruction (Invitrogen Pte Ltd).
Expression of GST-HDAC1 was done by infecting SF9 cells (Invitrogen Pte Ltd) with pDEST20-HDAC1 baculovirus at MOI=1 for 48 h. Soluble cell lysate was incubated with pre-equilibrated Glutathione Sepharose 4B beads (Amersham) at 4°C for 2 h. The beads were washed with PBS buffer for 3 times. The GST-HDAC1 protein was eluted by elution buffer containing 50 mM Tris, pH8.0, 150mM NaCl, 1% Triton X-100 and 10mM or 20mM reduced Glutathione. The purified GST-HDAC1 protein was dialyzed with HDAC storage buffer containing 10mM Tris, pH7.5, 100mM NaCl and 3mM MgCl2. 20% Glycerol was added to purified GST-HDAC1 protein before storage at -80°C.
The assay has been carried out in 96 well format and the BIOMOL fluorescent-based HDAC activity assay has been applied. The reaction composed of assay buffer, containing 25 mM Tris pH 7.5, 137 mM NaCl, 2.7 mM KCl, 1 mM MgCl2, 1 mg/ml BSA, tested compounds, an appropriate concentration of HDAC1 enzyme, 500 uM Flur de lys generic substrate for HDAC1 enzyme and subsequently was incubated at room temperature for 2 h. Flur de lys Developer was added and the reaction was incubated for 10 min. Briefly, deacetylation of the substrate sensitizes it to the developer, which then generates a fluorophore. The fluorophore is excited with 360 nm light and the emitted light (460 nm) is detected on a fluorometric plate reader (Tecan Ultra Microplate detection system, Tecan Group Ltd.).
The analytical software, Prism 4.0 (GraphPad Software Inc) has been used to generate IC50 from a series of data. IC50 is defined as the concentration of compound required for 50% inhibition of HDAC enzyme activity.

In a further assay the test system is Colo205 cells. Description: Cell-based proliferation assay for determination of GI50 values (CyQUANT). To be noted: concentration for 50% inhibition of cell growth, read-out: Gl50 (Colo205). Set-up: species or system Human. The method, then:
Human cancer cell lines (e.g. Colo205) were obtained from ATCC. Colo205 cells were cultivated in RPMI 1640 containing 2 mM L-Glutamine, 5% FBS, 1.0 mM Na Pyruvate. Colo205 cells were seeded in 96-wells plate at 5000 cells per well. The plates were incubated at 37°C, 5% CO2, for 24 h. Cells were treated with compounds at various concentrations for 96 h. Cell growth was then monitored using CyQUANT® cell proliferation assay (Invitrogen Pte Ltd). Dose response curves were plotted to determine Gl50 values for the compounds using XL-fit (ID Business Solution, Emeryville, CA). Gl50 is defined as the concentration of compound required for 50% inhibition of cell growth.

[1] abbreviates: Homo sapiens, COLO 205, compound treatment 96 h.

Where two headings read alike, the source gives them in different places.

T1 sequence (Q13547 whole entry): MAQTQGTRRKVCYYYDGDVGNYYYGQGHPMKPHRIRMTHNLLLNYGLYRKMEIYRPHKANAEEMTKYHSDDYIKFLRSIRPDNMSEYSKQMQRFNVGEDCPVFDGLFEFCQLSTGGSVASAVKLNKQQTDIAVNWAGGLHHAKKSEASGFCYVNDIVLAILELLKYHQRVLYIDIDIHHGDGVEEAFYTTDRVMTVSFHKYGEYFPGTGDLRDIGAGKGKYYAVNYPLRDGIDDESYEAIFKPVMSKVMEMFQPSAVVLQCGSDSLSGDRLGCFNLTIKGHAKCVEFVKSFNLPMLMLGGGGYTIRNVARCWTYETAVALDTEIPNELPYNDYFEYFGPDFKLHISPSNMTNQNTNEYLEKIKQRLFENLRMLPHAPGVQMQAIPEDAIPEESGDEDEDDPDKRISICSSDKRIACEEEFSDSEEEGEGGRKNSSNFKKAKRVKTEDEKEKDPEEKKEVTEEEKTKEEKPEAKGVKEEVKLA

Turning to `CCCCCc1nc2cc(C=CC(=O)NO)ccn2c1CN(CC)CCC(C)(C)C` [Compound 56, 3-(3-{[(3,3-Dimethyl-butyl)-ethyl-amino]-methyl}-2-pentyl-imidazo[1,2-a]pyridin-7-yl)-N-hydroxy-acrylamide], the IC50 at HDAC1 enzyme stood at 30 nM; with Colo205 cells (setting [1]), 150 nM.

On to `CCN(CCC(C)(C)C)Cc1c(CC(C)C)nc2cc(/C=C/C(=O)NO)ccn12` [Compound 61], for which the IC50 on HDAC1 enzyme stood at 30 nM; in the assay on Colo205 cells (setting [1]) it was 170 nM.

In the case of `CCCCN(CC)Cc1c(CC(C)C)nc2cc(C=CC(=O)NO)ccn12` [Compound 59, 3-{3-[(Butyl-ethyl-amino)-methyl]-2-isobutyl-imidazo[1,2-a]pyridin-7-yl}-N-hydroxy-acrylamide], the figures for the IC50 on HDAC1 enzyme and in the assay on Colo205 cells (setting [1]) were 40 nM and 150 nM, respectively.

On to `CCCCN(CC)Cc1c(C(C)(C)C)nc2cc(C=CC(=O)NO)ccn12` [Compound 16, 3-{2-tert-Butyl-3-[(butyl-ethyl-amino)-methyl]-imidazo[1,2-a]pyridin-7-yl}-N-hydroxy-acrylamide], for which the IC50 stood at 60 nM on HDAC1 enzyme and 680 nM with Colo205 cells (setting [1]).

In the case of `CCCCc1nc2cc(C=CC(=O)NO)ccn2c1CN(CC)CC(CC)CC` [Compound 46, 3-(2-Butyl-3-{[ethyl-(2-ethyl-butyl)-amino]-methyl}-imidazo[1,2-a]pyridin-7-yl)-N-hydroxy-acrylamide], the figures for the IC50 on HDAC1 enzyme and in the assay on Colo205 cells (setting [1]) were 150 nM and 390 nM, respectively.

With `CCCCCc1nc2cc(C=CC(=O)NO)ccn2c1CN(CC)CCC(C)C` [Compound 55, 3-(3-{(Ethyl-(3-methyl-butyl)-amino]-methyl}-2-pentyl-imidazo[1,2-a]pyridin-7-yl)-N-hydroxy-acrylamide], the IC50 at HDAC1 enzyme is 30 nM; in the assay on Colo205 cells (setting [1]) it was 140 nM.

Take `CCN(CCCSC)Cc1c(C(C)(C)C)nc2cc(C=CC(=O)NO)ccn12` [Compound 26, 3-(2-tert-Butyl-3-{[ethyl-(3-methylsulfanyl-propyl)-amino]-methyl}-imidazo[1,2-a]pyridin-7-yl)-N-hydroxy-acrylamide]: the IC50 came to 90 nM on HDAC1 enzyme and 600 nM in the assay on Colo205 cells (setting [1]).

With `CCCCN(CCCC)Cc1c(C)nc2cc(/C=C/C(=O)NO)ccn12` [Compound 12, 3-(3-Dibutylaminomethyl-2-methyl-imidazo[1,2-a]pyridin-7-yl)-N-hyroxy-acrylamide], the IC50 on HDAC1 enzyme worked out at 80 nM; in the assay with Colo205 cells (setting [1]), 800 nM.

For the compound `CCCCc1nc2cc(C=CC(=O)NO)ccn2c1CN(CCC)CCC` [Compound 6, 3-(2-Butyl-3-dipropylaminomethyl-imidazo[1,2-a]pyridin-7-yl)-N-hydroxy-acrylamide], the figures for the IC50 on HDAC1 enzyme and with Colo205 cells (setting [1]) were 200 nM and 610 nM, respectively.

For the compound `CCCCc1nc2cc(C=CC(=O)NO)ccn2c1CN(C)CCCC` [Compound 8, 3-{2-Butyl-3-[(butyl-methyl-amino)-methyl]-imidazo[1,2-a]pyridin-7-yl}-N-hydroxy-acrylamide], the IC50 at HDAC1 enzyme came to 70 nM; in the assay on Colo205 cells (setting [1]) it was 170 nM.

`CC(C)(C)NCc1c(C(C)(C)C)nc2cc(C=CC(=O)NO)ccn12` [Compound 3, 3-[2-tert-Butyl-3-(tert-butylamino-methyl)-imidazo[1,2-a]pyridin-7-yl]-N-hydroxy-acrylamide]: the IC50 on HDAC1 enzyme is 130 nM; with Colo205 cells (setting [1]) it was 740 nM.

Turning to `CCCc1nc2cc(C=CC(=O)NO)ccn2c1CN(CC)CCC(C)(C)C` [Compound 52, 3-(3-{[(3,3-Dimethyl-butyl)-ethyl-amino]-methyl}-2-propyl-imidazo[1,2-a]pyridin-7-yl)-N-hydroxy-acrylamide], the IC50 at HDAC1 enzyme came out at 20 nM; in the assay on Colo205 cells (setting [1]), 70 nM.

Turning to `CCCCNCc1c(CCCC)nc2cc(C=CC(=O)NO)ccn12` [Compound 4, 3-(2-Butyl-3-butylaminomethyl-imidazo[1,2-a]pyridin-7-yl)-N-hydroxy-acrylamide], the IC50 at HDAC1 enzyme was 20 nM; with Colo205 cells (setting [1]), 180 nM.

As for `CCC(CC)NCc1c(C(C)(C)C)nc2cc(C=CC(=O)NO)ccn12` [Compound 2, 3-{2-tert-Butyl-3-[(1-ethyl-propylamino)-methyl]-imidazo[1,2-a]pyridin-7-yl}-N-hydroxy-acrylamide], the IC50 at HDAC1 enzyme turned out to be 160 nM; in the assay with Colo205 cells (setting [1]), 1500 nM.

`CCCCc1nc2cc(C=CC(=O)NO)ccn2c1CN(CC)CCC(C)(C)C` [Compound 45, 3-(2-Butyl-3-{[(3,3-dimethyl-butyl)-ethyl-amino]-methyl)-imidazo[1,2-a]pyridin-7-yl)-N-hydroxy-acrylamide]: the figures for the IC50 at HDAC1 enzyme and with Colo205 cells (setting [1]) were 30 nM and 140 nM, respectively.

For the compound `CCC(CC)CN(CC)Cc1c(C)nc2cc(C=CC(=O)NO)ccn12` [Compound 31, 3-(3-{[Ethyl-(2-ethyl-butyl)-amino]-methyl}-2-methyl-imidazo[1,2-a]pyridin-7-yl)-N-hydroxy-acrylamide], the values for the IC50 on HDAC1 enzyme and in the assay on Colo205 cells (setting [1]) were 10 nM and 50 nM, respectively.

For `CC(C)Cc1nc2cc(C=CC(=O)NO)ccn2c1CNC(C)(C)C` [Compound 58, 3-[3-(tert-Butylamino-methyl)-2-isobutyl-imidazo[1,2-a]pyridin-7-yl]-N-hydroxy-acrylamide], the results for the IC50 on HDAC1 enzyme and in the assay with Colo205 cells (setting [1]) were 50 nM and 210 nM, respectively.

For `CCCCCc1nc2cc(C=CC(=O)NO)ccn2c1CN(CC)CCCC` [Compound 54, 3-{3-[(Butyl-ethyl-amino)-methyl]-2-pentyl-imidazo[1,2-a]pyridin-7-yl}-N-hydroxy-acrylamide], the IC50 turned out to be 40 nM on HDAC1 enzyme and 150 nM with Colo205 cells (setting [1]).

Regarding `CCN(CCC(C)C)Cc1c(CC(C)C)nc2cc(C=CC(=O)NO)ccn12` [Compound 60, 3-(3-{[Ethyl-(3-methyl-butyl)-amino]-methyl}-2-isobutyl-imidazo[1,2-a]pyridin-7-yl)-N-hydroxy-acrylamide], the IC50 with Colo205 cells (setting [1]) stood at 150 nM.

Take `CCCN(CC)Cc1c(C)nc2cc(C=CC(=O)NO)ccn12` [Compound 30, 3-{3-[(Ethyl-propyl-amino)-methyl]-2-methyl-imidazo[1,2-a]pyridin-7-yl}-N-hydroxy-acrylamide]: the IC50 amounted to 540 nM on HDAC1 enzyme and 4600 nM with Colo205 cells (setting [1]).

With `CCCCc1nc2cc(C=CC(=O)NO)ccn2c1CN(CC)CC(C)C` [Compound 40, 3-(2-Butyl-3-[(ethyl-isobutyl-amino)-methyl]-imidazo[1,2-a]pyridin-7-yl}-N-hydroxy-acrylamide], the IC50 at HDAC1 enzyme is 90 nM; in the assay on Colo205 cells (setting [1]), 570 nM.

`CCC(CC)CN(C)Cc1c(C(C)(C)C)nc2cc(C=CC(=O)NO)ccn12` [Compound 35, 3-(2-tert-Butyl-3-{[(2-ethyl-butyl)-methyl-amino]-methyl}-imidazo[1,2-a]pyridin-7-yl)-N-hydroxy-acrylamide]: the IC50 at HDAC1 enzyme is 410 nM; in the assay on Colo205 cells (setting [1]) it was 2300 nM.

On to `CCCCCc1nc2cc(C=CC(=O)NO)ccn2c1CNC(C)(C)C` [Compound 53, 3-[3-(tert-Butylamino-methyl)-2-pentyl-imidazo[1,2-a]pyridin-7-yl]-N-hydroxy-acrylamide], for which the IC50 on HDAC1 enzyme worked out at 20 nM; with Colo205 cells (setting [1]) it was 70 nM.

For `CC(C)CCN(C)Cc1c(C(C)(C)C)nc2cc(C=CC(=O)NO)ccn12` [Compound 36, 3-(2-tert-Butyl-3-{[methyl-(3-methyl-butyl)-amino]-methyl}-imidazo[1,2-a]pyridin-7-yl)-N-hydroxy-acrylamide], the IC50 on HDAC1 enzyme is 350 nM; in the assay on Colo205 cells (setting [1]), 900 nM.

In the case of “3-(2-Butyl-3-{(ethyl-(2-methyl-pentyl)-amino]-methyl}-imidazo[1,2-a]pyridin-7-yl)-N-hydroxy-acrylamide [Compound 41]”, the IC50 with Colo205 cells (compound treatment 96 h) was 370 nM.

Take `CCC(C)CN(CC)Cc1c(C(C)(C)C)nc2cc(C=CC(=O)NO)ccn12` (stereo not shown) [Compound 19, 3-(2-tert-Butyl-3-{[ethyl-(2-methyl-butyl)-amino]-methyl}-imidazo[1,2-a]pyridin-7-yl)-N-hydroxy-acrylamide]: in the assay with Colo205 cells (setting [1]), the IC50 turned out to be 2200 nM.

Source of the values: patent EP2064211B1, “IMIDAZO[1,2-A]PYRIDINE HYDROXYMATE COMPOUNDS THAT ARE INHIBITORS OF HISTONE DEACETYLASE” (MEI Pharma, Inc., priority 2006, dated 2008).
